Values after ≈ are worked out from the molar mass of the structure shown. *1 amine or outer side, *2 acyl side, *3 side chain or, on linkers, in order; H or OH if unused. Where a SMILES comes first, the peptide text is derived from it. Bridges are numbered along the chain shown (N, C = ends). [ ]: non-standard residue; d: D form. The star is where a group is joined. X6 = CCCCOC(/C=C/C(=O)[*:3])(CO)[C@@H](C)Oc1ccc([C@H](N[*:1])C(=O)[*:2])cc1; X3 = C[C@@H](Oc1ccc([C@H](N[*:1])C(=O)[*:2])cc1)[C@](O)(/C=C/C(=O)[*:3])CO; Pentanoyl(2R-Me,3R-OH,4-Me) = CC(C)[C@@H](O)[C@@H](C)C(=O)*; d(aIle) = CC[C@H](C)[C@@H](N)C(=O)O; d(aThr) = C[C@@H](O)[C@@H](N)C(=O)O; NMeF = CN[C@@H](Cc1ccccc1)C(=O)O
Tests used:
Escherichia coli RNAP = Escherichia coli RNAP (Escherichia coli, UniProt P0A8T7+P0A8V2); assay: Fluorescence-detected RNAP assay, Escherichia coli RNAP; format: biochemical; conditions: fluorescent-detected RNAP assays
Procedure: Fluorescence-detected RNAP assays with Escherichia coli RNAP were performed by a modification of the procedure of Kuhlman et al., 2004 [Kuhlman et al., Anal. Biochem. 324:183-190, 2004]. Reaction mixtures contained (20 μl): […] test compound, 75 nM Escherichia coli RNAP […] holoenzyme, 20 nM 384 by DNA fragment containing the bacteriophage T4 N25 promoter, 100 μM ATP, 100 μM GTP, 100 μM UTP, 100 μM CTP, 50 mM Tris-HCl, pH 8.0, 100 mM KCl, 10 mM MgCl2, 1 mM DTT, 10 μg/ml bovine serum albumin, and 5.5% glycerol. Reaction components other than DNA and NTPs were pre-incubated for 10 min at 37° C. Reactions were carried out by addition of DNA and incubation for 5 min at 37° C., followed by addition of NTPs and incubation for 60 min at 37° C. DNA was removed by addition of 1 μl 5 mM CaCl2 and 2 U DNaseI (Ambion, Inc.), followed by incubation for 90 min at 37° C. RNA was quantified by addition of 100 μl RiboGreen RNA Quantitation Reagent (Invitrogen, Inc.; 1:500 dilution in Tris-HCl, pH 8.0, 1 mM EDTA), followed by incubation for 10 min at 25° C., followed by measurement of fluorescence intensity [excitation wavelength=485 nm and emission wavelength=535 nm; QuantaMaster QM1 spectrofluorometer (PTI, Inc.)].
(§1) Half-maximal inhibitory concentrations (IC50s) were calculated by non-linear regression in SigmaPlot (SPSS, Inc.).

[1] = test system: Enterobacter cloacae ATCC 13047; assay: Antibacterial activity, broth microdilution, Enterobacter cloacae; format: cell-based
Source text: (§2) Antibacterial activity was quantified using broth microdilution [Clinical and Laboratory Standards Institute (CLSUNCCLS), Methods for Dilution Antimicrobial Susceptibility Tests for Bacteria That Grow Aerobically; Approved Standard, Eighth Edition. CLIS Document M07-A8 (CLIS, Wayne Pa.), 2009]. Assays with Enterobacter cloacae ATCC 13047, Pseudomonas aeruginosa ATCC10145, and Escherichia coli D21f2to1C, employed a starting cell density of 2-5×10^5 cfu/ml, Mueller Hinton II cation adjusted broth (BD Biosciences, Inc.), and an air atmosphere. Assays with Haemophilus influenzae ATCC49247 and Neisseria gonorrhoeae ATCC 19424 employed a starting cell density of 2-5×10^5 cfu/ml, Haemophilus Test Medium broth (Barry et al., 1993) and a 5% CO2/95% air atmosphere. MIC50 was defined as the minimal concentration resulting in ≧50% inhibition of bacterial growth.

[2] = test system: Escherichia coli D21f2toIC; assay: Antibacterial activity, broth microdilution, Escherichia coli D21f2tolC; format: cell-based
Source text: as §2

Sal-resistant mutants = assay: Cross-resistance of Sal-resistant mutants to other RNAP inhibitors; format: cell-based; conditions: disclosed herein
Vero E6 ATCC CRL1586 = assay: Cytotoxicity to mammalian cells in culture (CellTiter96); format: cell-based
Source text: MICs for mammalian cells (Vero E6) in culture were quantified using CellTiter96 assay (Promega. Inc.; procedures as specified by the manufacturer). Screening data for SalA and SalB (compounds 1 and 2) and representative compounds of this invention (compounds 3-9) are presented in Tables 1-2: […]

[3] = test system: Gram-positive and Gram-negative bacterial RNAP; assay: Inhibition of bacterial RNAP in vitro (radiochemical RNAP assays); format: biochemical; conditions: in words, disclosed herein
Procedure: Radiochemical RNAP assays with Escherichia coli RNAP and Staphylococcus aureus RNAP were performed as follows: Reaction mixtures contained (10 μl): 0-100 μM test compound, bacterial RNAP holoenzyme [75 nM Escherichia coli RNAP holoenzyme (prepared as in Mukhopadhyay et al., Meths. Enzymol. 371:144-159, 2003) or 75 nM Staphylococcus aureus RNAP core enzyme and 300 nM Staphylococcus aureus σ^A (prepared as in Srivastava et al., Curr. Opin. Microbiol. 14:532-543, 2011)], 20 nM DNA fragment N25-lacUV5-14 [positions −100 to −1 of the bacteriophage T5 N25 promoter followed by positions +1 to +29 of the lacUV5(+10A; +15C) promoter; prepared by PCR amplification of a synthetic nontemplate-strand oligodeoxyribonucleotide], 0.5 mM ApA, 100 μM [α^32P]UTP (0.2 Bq/fmol), 100 μM ATP, and 100 μM GTP in TB (50 mM Tris-HCl, pH 7.9, 100 mM KCl, 10 mM MgCl2, 1 mM DTT, 100 μg/ml bovine serum albumin, and 5% glycerol). […] Products were applied to 7 M urea 15% polyacrylamide (19:1 acrylamide:bisacrylamide) slab gels (Bio-Rad), electrophoresed in TBE (90 mM Tris-borate, pH 8.0, and 2 mM EDTA), and analyzed by storage-phosphor scanning (Typhoon; GE Healthcare, Inc.).
as §1

human RNAP I/II/III = assay: Radiochemical assay with human RNAP I, II and III (HeLaScribe nuclear extract); format: biochemical
Procedure: Radiochemical assays with human RNAP I, II, and III were performed essentially as described [Sawadogo and Roeder, Cell 43:165-75, 1985]. Reaction mixtures contained (20 μl): 0-100 μM test compound, 8 U HeLaScribe Nuclear Extract (Promega, Inc.), 1 μg human placental DNA (Sigma-Aldrich), 400 μM ATP, 400 μM [α^32P]UTP (0.11 Bq/fmol), 400 μM CTP, 400 μM GTP, 50 mM Tris-HCl, pH 8.0, 7 mM HEPES-NaOH, 70 mM (NH4)2SO4, 50 mM KCl, 12 mM MgCl2, 5 mM DTT, 0.1 mM EDTA, 0.08 mM phenylmethylsulfonyl fluoride, and 16% glycerol. Reaction components other than DNA and NTPs were pre-incubated 10 min at 30° C., DNA was added and reaction mixtures were incubated 15 min at 30° C., NTPs were added and reaction mixtures were incubated 60 min at 30° C. Reaction mixtures were spotted on DE81 filter discs (Whatman, Inc.; pre-wetted with water) and incubated 1 min at room temperature. Filters were washed with 3×3 ml Na2HPO4, 2×3 ml water, and 3 ml ethanol, using a filter manifold (Hoefer, Inc.). Filters were placed in scintillation vials containing 10 ml Scintiverse BD Cocktail (Thermo Fisher, Inc.), and radioactivity was quantified by scintillation counting (LS6500; Beckman-Coulter, Inc.).
as §1

Pseudomonas aeruginosa = assay: Antibacterial activity, broth microdilution, Pseudomonas aeruginosa; format: cell-based; conditions: in words, Gram-negative bacterial pathogen
Source text: as §2

Neisseria gonorrhoeae = assay: Antibacterial activity, broth microdilution, Neisseria gonorrhoeae; format: cell-based; conditions: in words, Gram-negative bacterial pathogen
Source text: as §2

Haemophilus influenzae = assay: Antibacterial activity, broth microdilution, Haemophilus influenzae; format: cell-based; conditions: in words, Gram-negative bacterial pathogen
Source text: as §2

[4] = test system: Gram-positive bacterial pathogens; conditions: in words, reported previously (Trischman 1994; Moore 1999); cited from earlier work
[5] = minimal concentration resulting in ≧50% inhibition of bacterial growth

Chain of Escherichia coli RNAP (P0A800 whole entry, the tested form may be a part): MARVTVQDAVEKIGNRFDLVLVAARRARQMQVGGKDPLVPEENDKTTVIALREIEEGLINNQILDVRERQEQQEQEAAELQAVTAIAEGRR
Chain of Escherichia coli RNAP (P00579 whole entry, further chain, the tested form may be a part): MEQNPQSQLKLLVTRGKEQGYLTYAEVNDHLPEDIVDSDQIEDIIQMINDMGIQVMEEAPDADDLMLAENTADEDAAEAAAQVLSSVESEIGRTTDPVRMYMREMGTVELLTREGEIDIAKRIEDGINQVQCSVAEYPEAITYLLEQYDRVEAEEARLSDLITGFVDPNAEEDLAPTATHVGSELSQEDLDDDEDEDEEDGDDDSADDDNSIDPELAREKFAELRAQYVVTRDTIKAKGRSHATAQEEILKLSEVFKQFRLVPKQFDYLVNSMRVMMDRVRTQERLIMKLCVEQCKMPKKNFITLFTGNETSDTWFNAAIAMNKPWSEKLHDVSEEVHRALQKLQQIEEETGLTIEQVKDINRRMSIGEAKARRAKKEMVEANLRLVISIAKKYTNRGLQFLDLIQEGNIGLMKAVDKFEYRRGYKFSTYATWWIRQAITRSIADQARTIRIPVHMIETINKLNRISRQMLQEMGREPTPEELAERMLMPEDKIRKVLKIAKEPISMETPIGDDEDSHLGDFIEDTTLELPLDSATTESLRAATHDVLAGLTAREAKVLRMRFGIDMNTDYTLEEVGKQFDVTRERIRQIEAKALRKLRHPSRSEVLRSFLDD
Chain of Escherichia coli RNAP (P0A8V2 whole entry, the tested form may be a part): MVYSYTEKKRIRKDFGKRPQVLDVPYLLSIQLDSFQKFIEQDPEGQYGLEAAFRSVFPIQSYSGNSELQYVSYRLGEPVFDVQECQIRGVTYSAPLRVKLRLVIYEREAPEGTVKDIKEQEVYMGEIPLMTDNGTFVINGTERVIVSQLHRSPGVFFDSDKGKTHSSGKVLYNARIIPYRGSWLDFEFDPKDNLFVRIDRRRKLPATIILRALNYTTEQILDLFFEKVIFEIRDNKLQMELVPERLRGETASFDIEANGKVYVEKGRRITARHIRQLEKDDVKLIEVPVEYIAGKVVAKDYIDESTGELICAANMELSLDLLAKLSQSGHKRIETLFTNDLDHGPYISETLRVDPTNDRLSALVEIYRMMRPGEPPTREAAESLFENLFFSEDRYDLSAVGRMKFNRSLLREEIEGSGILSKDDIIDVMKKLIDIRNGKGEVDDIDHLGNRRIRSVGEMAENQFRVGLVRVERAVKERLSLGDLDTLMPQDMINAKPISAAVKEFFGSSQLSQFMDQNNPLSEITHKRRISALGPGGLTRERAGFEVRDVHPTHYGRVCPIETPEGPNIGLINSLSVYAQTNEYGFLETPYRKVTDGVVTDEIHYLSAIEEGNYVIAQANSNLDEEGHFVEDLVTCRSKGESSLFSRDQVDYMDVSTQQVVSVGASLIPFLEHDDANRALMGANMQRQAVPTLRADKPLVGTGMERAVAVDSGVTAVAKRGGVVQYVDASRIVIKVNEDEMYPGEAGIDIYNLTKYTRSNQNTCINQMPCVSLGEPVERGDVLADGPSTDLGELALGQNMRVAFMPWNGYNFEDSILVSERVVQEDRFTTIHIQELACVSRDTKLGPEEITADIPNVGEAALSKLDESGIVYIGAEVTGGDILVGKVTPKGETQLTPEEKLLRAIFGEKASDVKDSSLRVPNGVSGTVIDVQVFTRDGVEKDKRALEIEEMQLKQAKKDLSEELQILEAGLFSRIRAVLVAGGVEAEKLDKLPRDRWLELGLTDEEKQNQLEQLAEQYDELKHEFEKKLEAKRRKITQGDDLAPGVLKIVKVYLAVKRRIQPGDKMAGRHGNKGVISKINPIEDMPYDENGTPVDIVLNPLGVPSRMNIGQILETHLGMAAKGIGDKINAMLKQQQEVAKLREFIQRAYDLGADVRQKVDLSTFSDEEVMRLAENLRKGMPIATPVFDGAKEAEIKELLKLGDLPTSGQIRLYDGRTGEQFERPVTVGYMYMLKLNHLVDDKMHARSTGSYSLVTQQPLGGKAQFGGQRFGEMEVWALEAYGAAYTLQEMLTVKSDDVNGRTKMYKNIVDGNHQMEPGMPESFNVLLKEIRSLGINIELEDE
Chain of Escherichia coli RNAP (P0A8T7 whole entry, the tested form may be a part): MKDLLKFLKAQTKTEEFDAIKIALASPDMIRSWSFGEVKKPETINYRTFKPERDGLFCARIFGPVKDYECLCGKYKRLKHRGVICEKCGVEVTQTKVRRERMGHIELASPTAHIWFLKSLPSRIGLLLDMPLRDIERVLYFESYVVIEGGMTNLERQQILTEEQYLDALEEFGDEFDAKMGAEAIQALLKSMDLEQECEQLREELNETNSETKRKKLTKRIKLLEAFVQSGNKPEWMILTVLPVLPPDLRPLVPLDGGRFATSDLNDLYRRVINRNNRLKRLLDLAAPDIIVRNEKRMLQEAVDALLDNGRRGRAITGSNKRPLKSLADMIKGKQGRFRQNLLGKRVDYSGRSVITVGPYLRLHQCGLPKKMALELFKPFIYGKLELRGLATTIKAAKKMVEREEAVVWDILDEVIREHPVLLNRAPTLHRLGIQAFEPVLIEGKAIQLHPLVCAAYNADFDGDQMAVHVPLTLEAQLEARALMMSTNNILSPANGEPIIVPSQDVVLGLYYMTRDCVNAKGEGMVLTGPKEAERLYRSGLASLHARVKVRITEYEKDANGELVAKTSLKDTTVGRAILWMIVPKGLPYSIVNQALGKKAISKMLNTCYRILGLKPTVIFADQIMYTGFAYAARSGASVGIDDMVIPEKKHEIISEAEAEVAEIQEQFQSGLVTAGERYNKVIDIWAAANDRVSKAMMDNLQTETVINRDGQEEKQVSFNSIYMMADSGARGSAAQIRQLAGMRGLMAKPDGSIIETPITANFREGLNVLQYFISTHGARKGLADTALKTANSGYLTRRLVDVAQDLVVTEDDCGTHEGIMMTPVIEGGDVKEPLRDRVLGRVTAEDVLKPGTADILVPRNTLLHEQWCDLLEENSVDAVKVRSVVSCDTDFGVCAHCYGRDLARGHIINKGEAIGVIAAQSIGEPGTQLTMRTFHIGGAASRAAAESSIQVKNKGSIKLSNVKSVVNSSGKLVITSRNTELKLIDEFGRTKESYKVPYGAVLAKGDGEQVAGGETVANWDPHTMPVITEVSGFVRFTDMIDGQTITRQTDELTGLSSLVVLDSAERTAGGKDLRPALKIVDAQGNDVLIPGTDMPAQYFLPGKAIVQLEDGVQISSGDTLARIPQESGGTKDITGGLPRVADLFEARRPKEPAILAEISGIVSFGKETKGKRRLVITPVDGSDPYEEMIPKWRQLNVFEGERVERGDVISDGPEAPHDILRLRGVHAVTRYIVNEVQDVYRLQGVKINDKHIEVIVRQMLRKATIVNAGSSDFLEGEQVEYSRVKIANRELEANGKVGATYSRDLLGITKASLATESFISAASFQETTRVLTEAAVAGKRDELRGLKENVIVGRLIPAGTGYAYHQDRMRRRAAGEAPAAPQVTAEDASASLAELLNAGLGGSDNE
Chain of Escherichia coli RNAP (P0A7Z4 whole entry, further chain, the tested form may be a part): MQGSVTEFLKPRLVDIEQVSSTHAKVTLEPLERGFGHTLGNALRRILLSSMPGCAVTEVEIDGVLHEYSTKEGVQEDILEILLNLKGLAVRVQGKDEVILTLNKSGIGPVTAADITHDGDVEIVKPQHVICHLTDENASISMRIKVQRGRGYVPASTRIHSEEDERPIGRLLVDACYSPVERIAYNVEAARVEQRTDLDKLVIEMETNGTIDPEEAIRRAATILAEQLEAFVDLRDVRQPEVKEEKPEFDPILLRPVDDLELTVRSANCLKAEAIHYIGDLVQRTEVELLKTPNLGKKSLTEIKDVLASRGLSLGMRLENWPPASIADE

In the case of `CCCCOC1(CO)/C=C/C(=O)NCC(=O)OC[C@@H]2NC(=O)[C@@H]([C@@H](C)O)NC(=O)[C@H](Cc3ccccc3)N(C)C(=O)[C@@H](NC(=O)[C@@H]([C@@H](C)CC)NC(=O)[C@@H](NC(=O)[C@H](C)[C@H](O)C(C)C)[C@@H](C)OC2=O)c2ccc(cc2)O[C@@H]1C` (stereo partly drawn) [Sal-OBu B (5B)] ({Pentanoyl(2R-Me,3R-OH,4-Me)}-T[d(aIle)][X6][NMeF][d(aThr)]S; ester 1-C; linker 3-6 via G), the IC50 (Escherichia coli RNAP) is reported as > 25000 nM.
For `CC[C@H](C)[C@H]1NC(=O)[C@@H](NC(=O)[C@H](C)[C@H](O)C(C)C)[C@@H](C)OC(=O)[C@@H]2COC(=O)CNC(=O)/C=C/[C@](O)(CO)[C@@H](C)Oc3ccc(cc3)[C@H](NC1=O)C(=O)N(C)[C@@H](Cc1ccccc1)C(=O)N[C@H]([C@@H](C)O)C(=O)N2` [Sal-OH (4)] ({Pentanoyl(2R-Me,3R-OH,4-Me)}-T[d(aIle)][X3][NMeF][d(aThr)]S; ester 1-C; linker 3-6 via G), the IC50 (Escherichia coli RNAP) was 2000 nM, the MIC50 ([1]; Enterobacter cloacae, ATCC13047, minimal concentration resulting in ≧50% inhibition of bacterial growth) was 25 µg/mL (≈ 24.1 µM) and the MIC50 ([2]; Escherichia coli, D21F2TOIC, read-out: MIC50 Escherichia coli D21f2toIC) was 0.78 µg/mL (≈ 0.751 µM).
In the case of `CNC(=O)[C@@H](C)[C@H]1C(=O)/C(=C(O)/C=C/C(C)=C/[C@@H](C)[C@H]2O[C@@]3(C)O[C@H](C=C[C@@]34CO4)[C@@H]2C)C(=O)N1[C@@H]1CC[C@H](O)[C@H](C)O1` [streptolydigin], the “cross-resistance of Sal-resistant mutants to the compound” value (“cross-resistance” below) (Sal-resistant mutants) is reported as “do not exhibit cross-resistance”.
For lipiarmycin, the “cross-resistance” value (Sal-resistant mutants) was “do not exhibit cross-resistance”.
With myxopyronin the “cross-resistance” value (Sal-resistant mutants) was “do not exhibit cross-resistance”.
For salinamide B [SalB (2)], the IC50 (Escherichia coli RNAP) was 1000 nM, the “inhibition of growth of mammalian cells in culture” value (Vero E6 ATCC CRL1586; in words) was “do not detectably inhibit growth” and the “MIC50 Vero E6 ATCC CRL1586” value (Vero E6 ATCC CRL1586; mammalian cells in culture) was >100 µg/mL. The “inhibition of Gram-positive and Gram-negative bacterial RNAP in vitro” value [3] was “inhibits”, the IC50 (human RNAP I/II/III) was > 100000 nM and the “inhibition of human RNAP I, II, and III” value (human RNAP I/II/III; in words) was “do not detectably inhibit”. The “antibacterial activity against Pseudomonas aeruginosa” value (Pseudomonas aeruginosa) was “exhibit antibacterial activity”, the “antibacterial activity against Enterobacter cloacae” value ([1]; in words, Gram-negative bacterial pathogen) was “exhibit antibacterial activity” and the “MIC50 Enterobacter cloacae ATCC 13047” value [1, 5] was 6.25 µg/mL. The “antibacterial activity against Neisseria gonorrhoeae” value (Neisseria gonorrhoeae) was “exhibit antibacterial activity”, the “antibacterial activity against Haemophilus influenzae” value (Haemophilus influenzae) was “exhibit antibacterial activity” and the “MIC50 Escherichia coli D21f2toIC” value [2, 5] was 0.098 µg/mL. For the same molecule, the “antibacterial activity against Gram-positive bacterial pathogens” value [4] was “exhibit antibacterial activity”.

From patent US9243039B2, “Bipartite inhibitors of bacterial RNA polymerase: Sal-target-inhibitor/nucleoside-analog-inhibitor conjugates” (priority 2012, dated 2016)
